Patent publication US20200078468A1, “NEUROTENSIN RECEPTOR BINDING CONJUGATES AND FORMULATIONS THEREOF” (priority 2016, published 2020)
Numbered stars: 1 amine (or outer) side, 2 acyl side, 3 side chain; on linkers, the order of the positions; unused ones are H or OH. Bridge positions count the residues as written; N and C are the ends. Square brackets hold non-standard residues; d marks the D form. Peptide text beside a SMILES is read from it. I, II: the chains in the order shown. * marks the point of attachment. SN38(20-O) = CCc1c2c(nc3ccc(O)cc13)-c1cc3c(c(=O)n1C2)COC(=O)[C@@]3(CC)O*; Hexanoyl(6-succinimido-3yl) = O=C1CC([*:1])C(=O)N1CCCCCC(=O)[*:2]; NMeR = CN[C@@H](CCCNC(=N)N)C(=O)O; Pen = CC(C)(S)[C@H](N)C(=O)O; Tle = CC(C)(C)[C@H](N)C(=O)O

system: SW48 (human colon cancer cells); experiment: inhibition of SW48 cell proliferation (CellTiter Glo); type: cell-based; details: NTSR1 scrambled compound; 72 hrs; read-out: SW-48 proliferation IC50
Procedure: Conjugates were assessed in an in vitro assay evaluating inhibition of cell proliferation. SW48 (human colon cancer cells, ATCC®), cells were plated in 96 well, flat-bottomed plates (Costar) at a concentration of 5,000 cells/well. Cells were then incubated at 37° C. with 5% CO2 for 24 hrs. After 24 hrs, cells were treated with 0.01% DMSO or compound. Compounds were added at a starting dose of 10 μM and three fold serial dilutions were done for a total often points. Following compound addition, cells were incubated at 37° C. with 5% CO2 for 72 hrs. Proliferation was measured by CellTiter Glo reagent using the standard protocol (Promega) and a Glomax multi+detection system (Promega). Percent proliferation inhibition was calculated using the following formula: % inhibition=(control−treatment)/control*100. Control is defined as vehicle alone. IC50 curves were generated using the nonlinear regression analysis (four parameter) with GraphPad Prism 6.
Conjugates are assessed for receptor-dependent cytotoxicity by the difference between an NTSR1-targeting conjugate, and the corresponding conjugate with the same linker moiety and active agent where the NTSR1-targeting domain has been scrambled.

| SMILES | IC50 |
| --- | --- |
| CC(=O)N[C@H](C(=O)N1CCC[C@H]1C(=O)N[C@@H](CC(C)C)C(=O)N1CCC[C@H]1C(=O)N[C@@H](CCCNC(=N)N)C(=O)N[C@H](C(=O)N[C@@H](CCCNC(=N)N)C(=O)N[C@@H](Cc1ccc(O)cc1)C(=O)O)C(C)(C)C)C(C)(C)SC1CC(=O)N(CCCCCC(=O)N[C@@H](Cc2ccccc2)C(=O)N[C@@H](CC(C)C)B2O[C@@H]3[C@@H]4C[C@H](C[C@]3(C)O2)C4(C)C)C1=O (some centres unmarked) [Compound 69] | > 10 µM |
| CO[C@H]1C(=O)[C@]2(C)[C@@H](OC)C[C@H]3OC[C@@]3(OC(C)=O)[C@H]2[C@H](OC(=O)c2ccccc2)[C@]2(O)C[C@H](OC(=O)[C@H](OC(=O)CCCCCN3C(=O)CC(SC(C)(C)[C@H](NC(C)=O)C(=O)N4CCC[C@H]4C(=O)N[C@@H](CC(C)C)C(=O)N4CCC[C@H]4C(=O)N[C@@H](CCCNC(=N)N)C(=O)N[C@H](C(=O)N[C@@H](CCCNC(=N)N)C(=O)N[C@@H](Cc4ccc(O)cc4)C(=O)O)C(C)(C)C)C3=O)[C@@H](NC(=O)OC(C)(C)C)c3ccccc3)C(C)=C1C2(C)C (some centres unmarked) [Compound 72] | 0.368 µM |
| CO[C@H]1C(=O)[C@]2(C)[C@@H](OC)C[C@H]3OC[C@@]3(OC(C)=O)[C@H]2[C@H](OC(=O)c2ccccc2)[C@]2(O)C[C@H](OC(=O)[C@H](OC(=O)N(C)CCN(C)C(=O)OCc3ccc(NC(=O)[C@H](CCCNC(N)=O)NC(=O)[C@@H](NC(=O)CCCCCN4C(=O)CC(SC(C)(C)[C@H](NC(C)=O)C(=O)N5CCC[C@H]5C(=O)N[C@@H](CC(C)C)C(=O)N5CCC[C@H]5C(=O)N[C@@H](CCCNC(=N)N)C(=O)N[C@H](C(=O)N[C@@H](CCCNC(=N)N)C(=O)N[C@@H](Cc5ccc(O)cc5)C(=O)O)C(C)(C)C)C4=O)C(C)C)cc3)[C@@H](NC(=O)OC(C)(C)C)c3ccccc3)C(C)=C1C2(C)C (some centres unmarked) [Compound 73] | 2.62 µM |
| CO[C@H]1C(=O)[C@]2(C)[C@@H](OC)C[C@H]3OC[C@@]3(OC(C)=O)[C@H]2[C@H](OC(=O)c2ccccc2)[C@]2(O)C[C@H](OC(=O)[C@H](OC(=O)N(C)CCCNC(=O)CNC(=O)[C@H](CC(C)C)NC(=O)[C@H](Cc3ccccc3)NC(=O)CNC(=O)CCCCCN3C(=O)CC(SCCC(=O)NCCCC[C@H](NC(C)=O)C(=O)N4CCC[C@H]4C(=O)N[C@@H](CC(C)C)C(=O)N4CCC[C@H]4C(=O)N(C)[C@@H](CCCNC(=N)N)C(=O)N[C@H](C(=O)N[C@@H](CCCNC(=N)N)C(=O)N[C@@H](Cc4ccc(O)cc4)C(=O)O)C(C)(C)C)C3=O)[C@@H](NC(=O)OC(C)(C)C)c3ccccc3)C(C)=C1C2(C)C (some centres unmarked) [Compound 74] | > 10 µM |
| COc1cc2cc(c1Cl)N(C)C(=O)C[C@H](OC(=O)[C@H](C)N(C)C(=O)CCSC1CC(=O)N(CCCNC(=O)CNC(=O)[C@H](CC(C)C)NC(=O)[C@H](Cc3ccccc3)NC(=O)CNC(=O)CCCCCN3C(=O)CC(SCCC(=O)NCCCC[C@H](NC(C)=O)C(=O)N4CCC[C@H]4C(=O)N[C@@H](CC(C)C)C(=O)N4CCC[C@H]4C(=O)N(C)[C@@H](CCCNC(=N)N)C(=O)N[C@H](C(=O)N[C@@H](CCCNC(=N)N)C(=O)N[C@@H](Cc4ccc(O)cc4)C(=O)O)C(C)(C)C)C3=O)C1=O)[C@]1(C)O[C@H]1[C@H](C)[C@@H]1C[C@@](O)(NC(=O)O1)[C@H](OC)/C=C/C=C(\C)C2 (some centres unmarked) [Compound 82] | 0.435 µM |
| COc1cc2cc(c1Cl)N(C)C(=O)C[C@H](OC(=O)[C@H](C)N(C)C(=O)CCSC1CC(=O)N(CCCNC(=O)CNC(=O)[C@H](CC(C)C)NC(=O)[C@H](Cc3ccccc3)NC(=O)CNC(=O)CCCCCN3C(=O)CC(SCCC(=O)NCCOCCOCCC(=O)NCCCC[C@H](NC(C)=O)C(=O)N4CCC[C@H]4C(=O)N[C@@H](CC(C)C)C(=O)N4CCC[C@H]4C(=O)N(C)[C@@H](CCCNC(=N)N)C(=O)N[C@H](C(=O)N[C@@H](CCCNC(=N)N)C(=O)N[C@@H](Cc4ccc(O)cc4)C(=O)O)C(C)(C)C)C3=O)C1=O)[C@]1(C)O[C@H]1[C@H](C)[C@@H]1C[C@@](O)(NC(=O)O1)[C@H](OC)/C=C/C=C(\C)C2 (some centres unmarked) [Compound 83] | 1.83 µM |
| COc1cc2cc(c1Cl)N(C)C(=O)C[C@H](OC(=O)[C@H](C)N(C)C(=O)CCSC1CC(=O)N(CCCNC(=O)CNC(=O)[C@H](CC(C)C)NC(=O)[C@H](Cc3ccccc3)NC(=O)CNC(=O)CCCCCN3C(=O)CC(SCCC(=O)NCCOCCOCCOCCOCCC(=O)NCCCC[C@H](NC(C)=O)C(=O)N4CCC[C@H]4C(=O)N[C@@H](CC(C)C)C(=O)N4CCC[C@H]4C(=O)N(C)[C@@H](CCCNC(=N)N)C(=O)N[C@H](C(=O)N[C@@H](CCCNC(=N)N)C(=O)N[C@@H](Cc4ccc(O)cc4)C(=O)O)C(C)(C)C)C3=O)C1=O)[C@]1(C)O[C@H]1[C@H](C)[C@@H]1C[C@@](O)(NC(=O)O1)[C@H](OC)/C=C/C=C(\C)C2 (some centres unmarked) [Compound 84] | 0.0485 µM |
| COc1cc2cc(c1Cl)N(C)C(=O)C[C@H](OC(=O)[C@H](C)N(C)C(=O)CCSC1CC(=O)N(CCCNC(=O)CNC(=O)[C@H](CC(C)C)NC(=O)[C@H](Cc3ccccc3)NC(=O)CNC(=O)CCCCCN3C(=O)CC(SCCC(=O)NCCOCCOCCOCCOCCOCCOCCOCCOCCC(=O)NCCCC[C@H](NC(C)=O)C(=O)N4CCC[C@H]4C(=O)N[C@@H](CC(C)C)C(=O)N4CCC[C@H]4C(=O)N(C)[C@@H](CCCNC(=N)N)C(=O)N[C@H](C(=O)N[C@@H](CCCNC(=N)N)C(=O)N[C@@H](Cc4ccc(O)cc4)C(=O)O)C(C)(C)C)C3=O)C1=O)[C@]1(C)O[C@H]1[C@H](C)[C@@H]1C[C@@](O)(NC(=O)O1)[C@H](OC)/C=C/C=C(\C)C2 (some centres unmarked) [Compound 85] | 0.0595 µM |
| COc1cccc2c1C(=O)c1c(O)c3c(c(O)c1C2=O)C[C@@](O)(C(=O)CO)C[C@@H]3O[C@H]1C[C@H](NC(=O)OCCSSC(C)(C)[C@H](NC(C)=O)C(=O)N2CCC[C@H]2C(=O)N[C@@H](CC(C)C)C(=O)N2CCC[C@H]2C(=O)N[C@@H](CCCNC(=N)N)C(=O)N[C@H](C(=O)N[C@@H](CCCNC(=N)N)C(=O)N[C@@H](Cc2ccc(O)cc2)C(=O)O)C(C)(C)C)[C@H](O)[C@H](C)O1 [Compound 88] | 1.94 µM |
| COc1cccc2c1C(=O)c1c(O)c3c(c(O)c1C2=O)C[C@@](O)(C(=O)CO)C[C@@H]3O[C@H]1C[C@H](NC(=O)OCc2ccc(NC(=O)[C@H](CCCNC(N)=O)NC(=O)[C@@H](NC(=O)CCCCCN3C(=O)CC(SC(C)(C)[C@H](NC(C)=O)C(=O)N4CCC[C@H]4C(=O)N[C@@H](CC(C)C)C(=O)N4CCC[C@H]4C(=O)N[C@@H](CCCNC(=N)N)C(=O)N[C@H](C(=O)N[C@@H](CCCNC(=N)N)C(=O)N[C@@H](Cc4ccc(O)cc4)C(=O)O)C(C)(C)C)C3=O)C(C)C)cc2)[C@H](O)[C@H](C)O1 (some centres unmarked) [Compound 89] | 2.58 µM |
| CC[C@H](C)[C@@H]([C@@H](CC(=O)N1CCC[C@H]1[C@H](OC)[C@@H](C)C(=O)N[C@H](C)[C@@H](O)c1ccccc1)OC)N(C)C(=O)[C@@H](NC(=O)[C@H](C(C)C)N(C)C(=O)OCc1ccc(NC(=O)[C@H](CCCNC(N)=O)NC(=O)[C@@H](NC(=O)CCCCCN2C(=O)CC(SCCC(=O)NCCOCCOCCC(=O)NCCCC[C@H](NC(C)=O)C(=O)N3CCC[C@H]3C(=O)N[C@@H](CC(C)C)C(=O)N3CCC[C@H]3C(=O)N(C)[C@@H](CCCNC(=N)N)C(=O)N[C@H](C(=O)N[C@@H](CCCNC(=N)N)C(=O)N[C@@H](Cc3ccc(O)cc3)C(=O)O)C(C)(C)C)C2=O)C(C)C)cc1)C(C)C (some centres unmarked) [Compound 94] | 0.0525 µM |

same assay, conditions: NTSR1 targeted compound; 72 hrs; read-out: SW-48 proliferation IC50

| SMILES | IC50 |
| --- | --- |
| CCc1c2c(nc3ccc(O)cc13)-c1cc3c(c(=O)n1C2)COC(=O)[C@@]3(CC)OC(=O)CNC(=O)CNC(=O)[C@H](CC(C)C)NC(=O)[C@H](Cc1ccccc1)NC(=O)CNC(=O)CCCCCN1C(=O)CC(SC(C)(C)[C@H](NC(C)=O)C(=O)N2CCC[C@H]2C(=O)N[C@@H](CCCNC(=N)N)C(=O)N(C)[C@@H](CCCNC(=N)N)C(=O)N2CCC[C@H]2C(=O)N[C@@H](Cc2ccc(O)cc2)C(=O)N[C@H](C(=O)N[C@@H](CC(C)C)C(=O)O)C(C)(C)C)C1=O (stereo partly drawn) [Compound 66] (I: Ac-[Pen]PR[NMeR]PY[Tle]L-OH / II: GFLGG-{SN38(20-O)}; linker I:1-II:N via Hexanoyl(6-succinimido-3yl)) | 0.694 µM |
| CCc1c2c(nc3ccc(O)cc13)-c1cc3c(c(=O)n1C2)COC(=O)[C@@]3(CC)OC(=O)CNC(=O)CNC(=O)[C@H](CC(C)C)NC(=O)[C@H](Cc1ccccc1)NC(=O)CNC(=O)CCCCCN1C(=O)CC(SC(C)(C)[C@H](NC(C)=O)C(=O)N2CCC[C@H]2C(=O)N(C)[C@@H](CCCNC(=N)N)C(=O)N[C@@H](CCCNC(=N)N)C(=O)N2CCC[C@H]2C(=O)N[C@@H](Cc2ccc(O)cc2)C(=O)N[C@H](C(=O)N[C@@H](CC(C)C)C(=O)O)C(C)(C)C)C1=O (stereo partly drawn) [Compound 67] (I: Ac-[Pen]P[NMeR]RPY[Tle]L-OH / II: GFLGG-{SN38(20-O)}; linker I:1-II:N via Hexanoyl(6-succinimido-3yl)) | 0.816 µM |
| CCc1c2c(nc3ccc(O)cc13)-c1cc3c(c(=O)n1C2)COC(=O)[C@@]3(CC)OC(=O)CNC(=O)CNC(=O)[C@H](CC(C)C)NC(=O)[C@H](Cc1ccccc1)NC(=O)CNC(=O)CCCCCN1C(=O)CC(SC(C)(C)[C@H](NC(C)=O)C(=O)N2CCC[C@H]2C(=O)N[C@@H](CCCCN)C(=O)N[C@@H](CCCNC(=N)N)C(=O)N2CCC[C@H]2C(=O)N[C@@H](Cc2ccc(O)cc2)C(=O)N[C@H](C(=O)N[C@@H](CC(C)C)C(=O)O)C(C)(C)C)C1=O (stereo partly drawn) [Compound 68] (I: Ac-[Pen]PKRPY[Tle]L-OH / II: GFLGG-{SN38(20-O)}; linker I:1-II:N via Hexanoyl(6-succinimido-3yl)) | 0.8 µM |
